Experimental data published in patent publication US6479033B1, “Antitumor cystostatic and contrast agent” (priority 1994, dated 2002).

Tested on: Tumor
Assay: Tumor growth and contrasting agent in the liver after treatment (carboplatin, Spherex, gelatin foam)
Type: in vivo
Conditions: carboplatin encapsulated in SUV-PEG
Description: The following Table summarizes results obtained using carboplatin as the cytostatic drug encapsulated in SUV-PEG and Spherex gelatin foam as the starch particle.

SMILES: N.N.O=C([O-])C1(C(=O)[O-])CCC1.[Pt+2] [Carboplatin, carboplatin]
- Tumor growth by a factor of (7 days after treatment): 1.45 ± 0.96
